Experimental data reported in the NIST ThermoML archive (doi:10.1021/acs.jced.8b01135).
Values joined by “and” are separate entries in the source; they are usually repeats but may differ in a detail not shown here. Equal values may be shown once.

Tests used:
[1] = xn = mol fraction of the nth substance listed; settings: 102 kPa, Liquid, x2 = 0; for speed of sound: Frequency=3 MHz, Single path-length method; for mass density: Vibrating tube method; for viscosity: Concentric cylinders viscometry
[2] = 102 kPa, Liquid; for speed of sound: Frequency=3 MHz, Single path-length method; for mass density: Vibrating tube method; for viscosity: Concentric cylinders viscometry

CCCCCCCCCCCC [dodecane] + CCCCCCCCC1CCCCC1
[1]
Settings	mass density [kg/m3]	speed of sound [m/s]	viscosity [mPa·s]
288.15 K	752.35	1317.2	–
293.15 K	748.72	1297.7	1.49
298.15 K	745.09	1278.2	–
303.15 K	741.46	1259	1.27
313.15 K	734.19	1221.1	1.08
323.15 K	726.88	1184	0.934
333.15 K	719.53	1147.8	0.813

CCCCCCCCCCCC [dodecane] + CCCCCCCCCCC1CCCCC1
[1]
Settings	mass density [kg/m3]	speed of sound [m/s]	viscosity [mPa·s]
288.15 K	752.35	1317.2	–
293.15 K	748.72	1297.7	1.49
298.15 K	745.09	1278.2	–
303.15 K	741.46	1259	1.27
313.15 K	734.19	1221.1	1.08
323.15 K	726.88	1184	0.934
333.15 K	719.53	1147.8	0.813

CCCCCCCCCCCC [dodecane] + CCCCCCCCCCCCC1CCCCC1
[1]
Settings	mass density [kg/m3]	speed of sound [m/s]	viscosity [mPa·s]
288.15 K	752.35	1317.2	–
293.15 K	748.72	1297.7	1.49
298.15 K	745.09	1278.2	–
303.15 K	741.46	1259	1.27
313.15 K	734.19	1221.1	1.08
323.15 K	726.88	1184	0.934
333.15 K	719.53	1147.8	0.813

CCCCCCCCCCCCC1CCCCC1 [dodecylcyclohexane]
[2]
Settings	mass density [kg/m3]	speed of sound [m/s]	viscosity
288.15 K	825.71	1441.5	–
293.15 K	822.36	1422.9	7.77 mPa·s and 7.76 mPa·s
298.15 K	819.02	1404.8	–
303.15 K	815.68	1386.3	5.81 mPa·s
313.15 K	809.03	1350.5	4.48 mPa·s
323.15 K	802.38	1315.4	3.55 mPa·s
333.15 K	795.75	1281.4	2.87 mPa·s and 2.88 mPa·s

CCCCCCCC1CCCCC1 [heptylcyclohexane]
[2]
Settings	mass density	speed of sound [m/s]	viscosity [mPa·s]
288.15 K	814.51 kg/m3	1393.6	–
293.15 K	811 kg/m3	1374.2	2.8
298.15 K	807.49 kg/m3	1355.1	–
303.15 K	803.99 kg/m3 and 803.98 kg/m3	1336.1	2.25
313.15 K	796.95 kg/m3	1298.8	1.85
323.15 K	789.91 kg/m3	1262.2	1.55
333.15 K	782.85 kg/m3	1226.7	1.31

CCCCCCC1CCCCC1 [hexylcyclohexane]
[2]
Settings	mass density [kg/m3]	speed of sound [m/s]	viscosity [mPa·s]
288.15 K	811.34	1380.4	–
293.15 K	807.76	1360.9	2.19
298.15 K	804.19	1341.4	–
303.15 K	800.61	1322.1	1.79
313.15 K	793.43	1284.2	1.52
323.15 K	786.25	1247.1	1.3
333.15 K	779.05	1211	1.12

CCCCCCCCC1CCCCC1 [octylcyclohexane]
[2]
Settings	mass density	speed of sound [m/s]	viscosity [mPa·s]
288.15 K	817.58 kg/m3	1405.5	–
293.15 K	814.13 kg/m3	1386.4	3.52
298.15 K	810.67 kg/m3	1367.4	–
303.15 K	807.21 kg/m3 and 807.2 kg/m3	1348.6	2.79
313.15 K	800.28 kg/m3	1311.6	2.26
323.15 K	793.35 kg/m3	1275.5	1.87
333.15 K	786.41 kg/m3	1240.3	1.57

CCCCCC1CCCCC1 [pentylcyclohexane]
[2]
Settings	mass density [kg/m3]	speed of sound [m/s]	viscosity [mPa·s]
288.15 K	807.78	1365.8	–
293.15 K	804.13	1346	1.69
298.15 K	800.48	1326.4	–
303.15 K	796.82	1306.7	1.43
313.15 K	789.49	1268.2	1.21
323.15 K	782.14	1230.5	1.05
333.15 K	774.75	1193.5	0.914
